Four compounds from patent publication US20110275559A1, “Long-Acting Y2 and/or Y4 Receptor Agonists” (Novo Nordisk A/S, priority 2008, published 2011) can be followed below.

Each structure is given as a SMILES string. *1 amine or outer side, *2 acyl side, *3 side chain or, on linkers, in order; H or OH if unused. Where a SMILES comes first, the peptide text is derived from it. Side-chain parts run from the residue outwards. The star is where a group is joined. C20 diacid = O=C(O)CCCCCCCCCCCCCCCCCCC(=O)*; C18 diacid = O=C(O)CCCCCCCCCCCCCCCCC(=O)*; γGlu = O=C(O)[C@H](CCC(=O)[*:2])N[*:1]; Trx = NC[C@H]1CC[C@H](C(=O)O)CC1; AEEA = NCCOCCOCC(=O)O

The term half-life denotes the time needed for the level to fall by half in the phase considered. Low readings indicate rapid decline, high ones slow decline.

A short description of the data set: in vivo. The note with it: Göttingen, minipig, iv. Here is the method:
(§1) The mini-pigs had two central venous catheters inserted which were used for intra venous (i.v.) dosing and bloodsampling. Compound was dissolved in 50 mM K2HPO4, 0.05% tween 80, pH=8.0 to a concentration of 180 nmol/ml. The pigs were dosed with 6 nmol compound/kg body weight. […] The blood samples were collected into test tubes containing EDTA buffer for stabilization and kept on ice for max. 20 minutes before centrifugation. The centrifugation procedure to separate plasma was; 4° C., 3000 rpm for 10 minutes. Plasma were collected and immediately transferred to Micronic tubes stored at −20° C. until assayed.
An additional mini-pig PK assay was used for measuring PK of the compounds of the invention. […] The animals had two central venous catheters inserted which were used for intra venous (i.v.) dosing and blood sampling. Compounds were dissolved in 10 mM Na2HPO4, 150 mM NaCl, 0.01% tween 80, pH=4.0 to concentrations in the range of 40 nmol/ml to 200 nmol/ml. The mini-pigs were dosed i.v. with 10 nmol compound/kg body weight, occasionally other doses such as 4 nmol/kg, 30 nmol/kg or 50 nmol/kg were administered. Each compound was dosed to 3 or 4 mini-pigs, and two compounds may be given simultaneously to the same animal. Blood were sampled pre-dose and 12 times during the first 10 hours post-dose. Blood were furthermore sampled once daily until 13 days post dosing. The blood samples were collected into test tubes containing EDTA buffer, trasylol and Val-Pyr for stabilization and kept on ice for max. 20 minutes. Samples were centrifuged at 4° C., 2000G for 10 minutes to separate plasma. Plasma were collected and immediately transferred to Micronic tubes stored at −20° C. until assayed.
Plasma samples were analysed by LC-MS on an LTQ-Orbitrap (ThermoFisher Scientific, Bremen) to which Accela HPLC pumps and an autosampler were connected (both from ThermoFisher). […] HPLC was performed on a Jupiter Proteo column (4μ) 90A (50×2.0 mm ID). […] The flow rate was 0.3 ml/min. For analysis of plasma samples, 30 μl plasma was precipitated with 90 μl ethanol. […] The heptane phase was removed after 5 min and the remaining solution was analysed by LC-MS as described above. For construction of plasma standards, compound was spiked to plasma (minipig) at the following concentrations: 1 nM, 2 nM, 5 nM, 10 nM, 20 nM, 50 nM, 100 nM, 200 nM. The plasma standards were treated as the samples. The lower limit of quantification was estimated to 2 nM.
Non-compartmental analysis (NCA): Plasma concentration-time profiles were analyzed by non-compartmental pharmacokinetics analysis (NCA) using WinNonlin Professional 5.0 (Pharsight Inc., Mountain View, Calif., USA). NCA was performed using the individual plasma concentration-time profiles from each animal.
For determination of plasma concentration of the PYY and PP peptide derivative or analogues thereof the following Methods 1-4 were used.
as §1, with “bloodsampling. The compound” for “bloodsampling. Compound”, “to an appropriate” for “to a”, “concentration (e.g. 25-500 nmol/mL).” for “concentration of 180 nmol/ml.”, “dosed intravenously (i.v.) or subcutaneously (s.c.)” for “dosed”, “with between 1 and 30” for “with 6”, “buffer (with Aprotinin 15000 KIE/mL and Val-Pyr 0.30 mM)” for “buffer”
An additional mini-pig PK assay was used for measuring PK of the compounds of the invention. […] The animals had two central venous catheters inserted which were used for intra venous (i.v.) dosing and blood sampling.

In turn, `CC[C@H](C)[C@H](NC(=O)[C@H](Cc1ccc(O)cc1)NC(=O)[C@H](CCCNC(=N)N)NC(=O)[C@H](CCCNC(=N)N)NC(=O)[C@H](CC(C)C)NC(=O)[C@H](CC(=O)O)NC(=O)[C@H](C)NC(=O)[C@H](C)NC(=O)[C@H](Cc1ccc(O)cc1)NC(=O)[C@H](CCC(N)=O)NC(=O)[C@H](C)NC(=O)[C@H](CCSC)NC(=O)[C@H](CCC(N)=O)NC(=O)[C@H](CCC(=O)O)NC(=O)[C@@H]1CCCN1C(=O)[C@H](CCCCNC(=O)COCCOCCNC(=O)COCCOCCNC(=O)CC[C@H](NC(=O)CCCCCCCCCCCCCCCCC(=O)O)C(=O)O)NC(=O)[C@H](C)NC(=O)[C@H](CC(N)=O)NC(=O)[C@H](CC(=O)O)NC(=O)CNC(=O)[C@@H]1CCCN1C(=O)[C@H](Cc1ccc(O)cc1)NC(=O)[C@@H](NC(=O)[C@@H]1CCCN1C(=O)[C@H](CCC(=O)O)NC(=O)[C@H](CC(C)C)NC(=O)[C@@H]1CCCN1C(=O)[C@H](C)N)C(C)C)C(=O)N[C@@H](CC(N)=O)C(=O)N[C@@H](CCSC)C(=O)N[C@@H](CC(C)C)C(=O)N[C@H](C(=O)N[C@@H](CCCNC(=N)N)C(=O)N1CCC[C@H]1C(=O)N[C@@H](CCCNC(=N)N)C(=O)N[C@@H](Cc1ccc(O)cc1)C(N)=O)[C@@H](C)O` [SEQ ID NO: 24, N-epsilon13-[2-(2-{2-[2-(2-{2-[(S)-4-Carboxy-4-(17-carboxyheptadecanoylamino)butyrylamino]ethoxy}ethoxy)acetylamino]-ethoxy}ethoxy)acetyl][Lys13]hPP(1-36)] (H-APLEPVYPGDNAK([AEEA-AEEA-γGlu-C18 diacid])PEQMAQYAADLRRYINMLTRPRY-NH2; N-terminus and C-terminus assumed) gave a half-life (20 nmol/kg) of 3.5 h.

As to `CC[C@H](C)[C@H](NC(=O)[C@H](Cc1ccc(O)cc1)NC(=O)[C@H](CCCNC(=N)N)NC(=O)[C@H](CCCCNC(=O)COCCOCCNC(=O)COCCOCCNC(=O)CC[C@H](NC(=O)CCCCCCCCCCCCCCCCC(=O)O)C(=O)O)NC(=O)[C@H](CC(C)C)NC(=O)[C@H](CC(=O)O)NC(=O)[C@H](C)NC(=O)[C@H](C)NC(=O)[C@H](Cc1ccc(O)cc1)NC(=O)[C@H](CCC(N)=O)NC(=O)[C@H](C)NC(=O)[C@H](CC(C)C)NC(=O)[C@H](CCC(N)=O)NC(=O)[C@H](CCC(=O)O)NC(=O)[C@@H]1CCCN1C(=O)[C@@H](NC(=O)[C@H](C)NC(=O)[C@H](CC(N)=O)NC(=O)[C@H](CC(=O)O)NC(=O)CNC(=O)[C@@H]1CCCN1C(=O)[C@H](Cc1ccc(O)cc1)NC(=O)[C@@H](NC(=O)[C@@H]1CCCN1C(=O)[C@H](CCC(=O)O)NC(=O)[C@H](CC(C)C)NC(=O)[C@@H]1CCCN1)C(C)C)[C@@H](C)O)C(=O)N[C@@H](CC(N)=O)C(=O)N[C@@H](CC(C)C)C(=O)N[C@@H](CC(C)C)C(=O)N[C@H](C(=O)N[C@@H](CCCNC(=N)N)C(=O)N1CCC[C@H]1C(=O)N[C@@H](CCCNC(=N)N)C(=O)N[C@@H](Cc1ccc(O)cc1)C(N)=O)[C@@H](C)O` [SEQ ID NO: 49, N-epsilon25-[2-(2-{2-[2-(2-{2-[(S)-4-Carboxy-4-(17-carboxyheptadecanoylamino)butyrylamino]ethoxy}ethoxy)acetylamino]-ethoxy}ethoxy)acetyl][Leu17,Lys25,Leu30]hPP2-36] (H-PLEPVYPGDNATPEQLAQYAADLK([AEEA-AEEA-γGlu-C18 diacid])RYINLLTRPRY-NH2), the half-life (10 nmol/kg) was 88 h.

`CC[C@H](C)[C@H](NC(=O)[C@H](Cc1ccc(O)cc1)NC(=O)[C@H](CCCNC(=N)N)NC(=O)[C@H](CCCNC(=N)N)NC(=O)[C@H](CC(C)C)NC(=O)[C@H](CC(=O)O)NC(=O)[C@H](C)NC(=O)[C@H](C)NC(=O)[C@H](Cc1ccc(O)cc1)NC(=O)[C@H](CCC(N)=O)NC(=O)[C@H](C)NC(=O)[C@H](CC(C)C)NC(=O)[C@H](CCC(N)=O)NC(=O)[C@H](CCC(=O)O)NC(=O)[C@@H]1CCCN1C(=O)[C@H](CCCCNC(=O)COCCOCCNC(=O)COCCOCCNC(=O)CC[C@H](NC(=O)[C@H]1CC[C@H](CNC(=O)CCCCCCCCCCCCCCCCCCC(=O)O)CC1)C(=O)O)NC(=O)[C@H](C)NC(=O)[C@H](CC(N)=O)NC(=O)[C@H](CC(=O)O)NC(=O)CNC(=O)[C@@H]1CCCN1C(=O)[C@H](Cc1ccc(O)cc1)NC(=O)[C@@H](NC(=O)[C@@H]1CCCN1C(=O)[C@H](CCC(=O)O)NC(=O)[C@H](CC(C)C)NC(=O)[C@@H]1CCCN1C(=O)[C@H](C)N)C(C)C)C(=O)N[C@@H](CC(N)=O)C(=O)N[C@@H](CC(C)C)C(=O)N[C@@H](CC(C)C)C(=O)N[C@H](C(=O)N[C@@H](CCCNC(=N)N)C(=O)N[C@@H](CCC(N)=O)C(=O)N[C@@H](CCCNC(=N)N)C(=O)N[C@@H](Cc1ccc(O)cc1)C(=O)O)[C@@H](C)O` [SEQ ID NO: 74, N-epsilon13-[2-(2-{2-[2-(2-{2-[(S)-4-Carboxy-4-({trans-4-[(19-carboxynonadecanoylamino)methyl]cyclohexanecarbonyl}amino)butyrylamino]-ethoxy}ethoxy)acetylamino]ethoxy}ethoxy)acetyl][Leu17,Lys13,Gln34]hPP1-36 acid] (H-APLEPVYPGDNAK([AEEA-AEEA-γGlu-Trx-C20 diacid])PEQLAQYAADLRRYINLLTRQRY-OH; N-terminus assumed) gave a half-life (16 nmol/kg) of 8 h.

Consider `CC[C@H](C)[C@H](NC(=O)[C@H](Cc1ccc(O)cc1)NC(=O)[C@H](CCCNC(=N)N)NC(=O)[C@H](CCCNC(=N)N)NC(=O)[C@H](CC(C)C)NC(=O)[C@H](CC(=O)O)NC(=O)[C@H](C)NC(=O)[C@H](C)NC(=O)[C@H](Cc1ccc(O)cc1)NC(=O)[C@H](CCC(N)=O)NC(=O)[C@H](C)NC(=O)[C@H](CC(C)C)NC(=O)[C@H](CCC(N)=O)NC(=O)[C@H](CCC(=O)O)NC(=O)[C@@H]1CCCN1C(=O)[C@@H](NC(=O)[C@H](C)NC(=O)[C@H](CC(N)=O)NC(=O)[C@H](CCCCNC(=O)COCCOCCNC(=O)COCCOCCNC(=O)CC[C@H](NC(=O)[C@H]1CC[C@H](CNC(=O)CCCCCCCCCCCCCCCCCCC(=O)O)CC1)C(=O)O)NC(=O)CNC(=O)[C@@H]1CCCN1C(=O)[C@H](Cc1ccc(O)cc1)NC(=O)[C@@H](NC(=O)[C@@H]1CCCN1C(=O)[C@H](CCC(=O)O)NC(=O)[C@H](CC(C)C)NC(=O)[C@@H]1CCCN1)C(C)C)[C@@H](C)O)C(=O)N[C@@H](CC(N)=O)C(=O)N[C@@H](CC(C)C)C(=O)N[C@@H](CC(C)C)C(=O)N[C@H](C(=O)N[C@@H](CCCNC(=N)N)C(=O)N[C@@H](CCC(N)=O)C(=O)N[C@@H](CCCNC(=N)N)C(=O)N[C@@H](Cc1ccc(O)cc1)C(N)=O)[C@@H](C)O` [SEQ ID NO: 39, N-epsilon10-[2-(2-{2-[2-(2-{2-[(S)-4-Carboxy-4-({trans-4-[(19-carboxynonadecanoylamino)methyl]cyclohexanecarbonyl}amino)butyrylamino]-ethoxy}ethoxy)acetylamino]ethoxy}ethoxy)acetyl][Lys10,Leu17,Leu30,Gln34]hPP2-36] (H-PLEPVYPGK([AEEA-AEEA-γGlu-Trx-C20 diacid])NATPEQLAQYAADLRRYINLLTRQRY-NH2; N-terminus and C-terminus assumed), for which the half-life (in vivo, 4 nmol/kg) was 32 h.
